Conditions: Transpiration method

Cn1c(=O)c2c(ncn2C)n(C)c1=O [caffeine]
Conditions | vapor or sublimation pressure [kPa]
366.2 K, Crystal 2 | 0.00017
373.3 K, Crystal 2 | 0.00033
379.9 K, Crystal 2 | 0.00055
383.9 K, Crystal 2 | 0.00077
386.9 K, Crystal 2 | 0.00106
389.8 K, Crystal 2 | 0.00128
395.9 K, Crystal 2 | 0.00223
400.9 K, Crystal 2 | 0.00338
405 K, Crystal 2 | 0.00441
406 K, Crystal 2 | 0.00525
408 K, Crystal 2 | 0.00577
410.1 K, Crystal 2 | 0.00693
420.2 K, Crystal 1 | 0.01448
424.9 K, Crystal 1 | 0.02064
430.1 K, Crystal 1 | 0.02868
434.5 K, Crystal 1 | 0.03685
